This is an account of results in patent US9562066B2, “Oral therapy of necrotizing enterocolitis” (University of Pittsburgh—of the Commonwealth System of …, priority 2012, dated 2017).

Data set [1] has as its system TLR4-mediated inflammation in human ex vivo intestinal tissue. Kind of data set: LPS-induced (TLR4-mediated) inflammation in human ex vivo control and NEC intestinal tissue, qRT-PCR. Conditions: CpG 1 uM, LPS 50 ug/ml 3 hours. In kind it is cell-based. As for the experimental part:
(§1) The effect of CpG-ODN 5′-[…]-3′ (SEQ ID NO:6; ODN 1826) on inhibiting NEC in a murine NEC model in vivo, and in ex vivo human samples from infants undergoing intestinal resection for active NEC or at the time of stoma closure was examined. To determine the level of NEC inhibition, the extent of LPS signaling was determined by the degree of expression of pro-inflammatory cytokines iNOS and TNFα by Quantitative real-time PCR (qRT-PCR).
All human tissue was obtained and processed as discarded tissue via waiver of consent with approval from the University of Pittsburgh Institutional Review Board and in accordance with the University of Pittsburgh anatomical tissue procurement guidelines. Human tissue was obtained from infants undergoing intestinal resection for active NEC or at the time of stoma closure (healed NEC at the time of stoma closure). After initial review by the duty pathologist to ensure that adequate diagnostic information was obtained from the gross tissue specimen, the intestinal resection was divided into multiple pieces, and treated in triplicate with media alone, LPS 50 ug/ml, CpG (1 uM) alone or LPS+CpG as described by Neal et al. (55). After 3 hours of treatment, tissue was processed for qRT-PCR, and assessed for the expression of IL1β, TLR4, iNOS or IL-6.
(§2) The extent of LPS signaling was determined by the degree of pro-inflammatory cytokines, iNOS, and TNFα by Quantitative real-time PCR (qRT-PCR). qRT-PCR was performed using the Bio-Rad CFX96 Real-Time System (Biorad, Hercules, Calif.) using the primers listed in the table below.

Data set [2] has as its system experimental NEC in neonatal mice. The data set can be described thus: Experimental NEC in neonatal mice (formula feeding and hypoxia), oral CpG (Example 2). It counts as in vivo, mouse. As for the experimental part: as §1
Committee of the University of Pittsburgh. Swiss Webster mice were obtained from Charles River Laboratories. NEC was induced in 7-10 day old mice as described by Leaphart et al. (21) and Afrazi et al. (54) using formula gavage (a 2:1 ratio of Similac Advance infant formula (Ross Pediatrics):Esbilac canine milk replacer) administered five times/day, along with hypoxia (5% O2, 95% N2) for 10 min in a hypoxic chamber (Billups-Rothenberg, Inc., Del Mar, Calif.) twice daily, for 4 days. This protocol results in the development of patchy necrosis involving the small intestine, which is similar to human NEC, with an increase in circulating cytokines that mimics that observed in human NEC (40). CpG was administered via the oral route at a concentration of 1 mg/kg/day, which included […] of pretreatment prior to the start of the NEC model. Disease severity was determined on histological sections of the terminal ileum by a pediatric pathologist blinded to the study condition according to a scoring system from 0 (normal) to 3 (severe), as described by Leaphart et al. (21).
as §2
Statistical analysis was performed using SPSS 13.0 software. ANOVA was used for comparisons for experiments involving more than two experimental groups. Two-tailed student's t-test was used for comparison for experiments consisting of two experimental groups. For analysis of the severity of NEC, chi-square analysis was performed.

The test system of data set [3] is murine model for NEC (mNEC). The data set can be described thus: Murine model for NEC (mNEC), oral CpG-ODN during induction (Example 1). In kind it is in vivo, mouse. Conditions: for gross morphology: mNEC mice treated orally vs untreated mNEC mice, FIG. 5; for expression of TNFα in the intestines (quantitative RT-PCR) / disruption of the small intestine mucosa (H&E histology): mNEC mice; for expression of TNFα in the intestines (quantitative RT-PCR): oral 1 mg/kg twice per day in formula, day 4 after mNEC induction, FIG. 1; for disruption of the small intestine mucosa (H&E histology): FIG. 2A-F; for body weight: treated vs untreated mNEC mice. As for the experimental part:
(§3) A murine model for NEC (“mNEC”) was produced in newborn mice by 4 days of hypoxia and formula gavage (52), which leads to the induction of iNOS, reduced enterocyte proliferation, and disruption of the ileal mucosa (“mNEC” mice) as compared to control mice that were allowed to breast feed (“BF” mice”). Specifically, mNEC was induced in 10-d-old mice (12) using formula gavage [Similac Advance infant formula (Abbott Nutrition):Esbilac canine milk replacer, 2:1] 50 μL/g body weight, five times per day for 4 d, and hypoxia (5% O2, 95% N2) administered for 10 min twice daily for 4 d using a hypoxia chamber (Billups-Rothenberg Inc.). CpG-1 was […]-3′ (SEQ ID NO:6), containing phosphorothioate linkages, known in the art as CpG ODN 1826 (Coley Pharmaceutical Group, Ottawa, Ontario, Canada (Pfizer)). CpG-2 was 5′ […] 3′ (SEQ ID NO:9). CpG-1 or CpG-2 was administered at a dose of 1 mg/kg at a frequency of twice per day in the infant formula described above. Oral administration to breast-fed and NEC animals was achieved by gavage with a silastic foam tipped angiocatheter.
Quantitative RT-PCR was used to assess the effects of orally administered CpG-1 or CpG-2 on expression of the inflammatory cytokine tumor necrosis factor alpha (TNFα) in mNEC versus BF mice. Measurements were made on day 4 after mNEC induction. […] This effect was reflected by histologic evaluation, as depicted in FIG. 2A-F, where the disruption of the small intestine mucosa observed in untreated mNEC mice (FIG. 2B) is ameliorated in mNEC mice orally treated with CpG-1 or CpG-2 (FIGS. 2C and 2D, respectively) to resemble the mucosa of BF control (FIG. 2A).

In data set [4] the test system is murine model for NEC (mNEC). Kind of data set: Pre-treatment with CpG-1 48 hours prior to attempted induction of mNEC. It counts as in vivo, mouse. Particulars: administered 48 hours prior to attempted induction of mNEC. As for the experimental part:
FIG. 6A-C. Effects of pre-treatment of mice prior to induction of NEC. (A) Mucosal iNOS expression (as measured by RT-PCR) in BF controls, untreated mNEC animals, mice pre-treated with CpG-1 for 48 hours prior to attempted induction of NEC (“mNEC Cpg1”) and BF mice treated with CpG-1 for 48 hours. (B) Mucosal TNFα expression (as measured by RT-PCR) in BF controls, untreated mNEC animals, mice pre-treated with CpG-1 for 48 hours prior to attempted induction of NEC (“mNEC Cpg1”) and BF mice treated with CpG-1 for 48 hours. (C) Weight at the time of euthanasia of BF controls, untreated mNEC animals, mice pre-treated with CpG-1 for 48 hours prior to attempted induction of NEC (“mNEC Cpg1”) and BF mice treated with CpG-1 for 48 hours.
as §3

In a further data set the test system is NFκB. The data set can be described thus: NFκB activation in intestinal mucosa of NFκB-GFP transgenic newborn mice with mNEC, confocal microscopy. It counts as in vivo, mouse. Particulars: mNEC mice vs saline-treated mNEC, FIG. 4A-D. The source says:
FIG. 4A-D. Confocal microscopy showing extent of NFκB activation in intestinal mucosa of newborn transgenic mice that express NFκB-GFP. Nuclei are indicated by areas of blue fluorescence. NFκB is detected by a red fluorescent anti-GFP antibody, and is more punctate. Newborn mice were either (A) BF controls treated with saline; (B) mNEC mice treated with saline; or (C) mNEC mice treated with CpG-2. (D) is graphical depiction of results, showing the relative red (GFP) pixel intensity for each animal.
A murine model for NEC (“mNEC”) was produced in newborn mice by 4 days of hypoxia and formula gavage (52), which leads to the induction of iNOS, reduced enterocyte proliferation, and disruption of the ileal mucosa (“mNEC” mice) as compared to control mice that were allowed to breast feed (“BF” mice”). Specifically, mNEC was induced in 10-d-old mice (12) using formula gavage [Similac Advance infant formula (Abbott Nutrition):Esbilac canine milk replacer, 2:1] 50 μL/g body weight, five times per day for 4 d, and hypoxia (5% O2, 95% N2) administered for 10 min twice daily for 4 d using a hypoxia chamber (Billups-Rothenberg Inc.). CpG-1 was […]-3′ (SEQ ID NO:6), containing phosphorothioate linkages, known in the art as CpG ODN 1826 (Coley Pharmaceutical Group, Ottawa, Ontario, Canada (Pfizer)). CpG-2 was 5′ […] 3′ (SEQ ID NO:9). […]

Setting [5] is: control tissue (healed NEC at stoma closure), FIG. 8A.

In the case of CpG ODN 1826 [CpG-1], in data set [1] (setting [5]), the “LPS-induced increase in expression of IL1β (qRT-PCR)” value was “reduced” and the “LPS-induced increase in expression of TLR4 (qRT-PCR)” value is reported as “reduced”. Moreover, in data set [1] (human NEC tissue, FIG. 8B), the “LPS-induced expression of IL-6 (qRT-PCR)” value is “reduced” and the “LPS-induced expression of iNOS (qRT-PCR)” value was “reduced”. For the same substance, the “expression of iNOS in the intestinal mucosa (qRT-PCR)” value in data set [2] (oral 1 mg/kg, formula-fed NEC mice, FIG. 7B(i), p<0.05 FF+CpG vs FF) is given as “reduced”. The “expression of IL-6 in the intestinal mucosa (qRT-PCR)” value in data set [2] (oral 1 mg/kg, formula-fed NEC mice, FIG. 7B(ii), p<0.05 FF+CpG vs FF) is listed as “reduced”. For the same substance, the NEC severity score entry in data set [2] (oral 1 mg/kg, score 0 (normal) to 3 (severe), FIG. 7B(iii)) is reported as “reduced”. For the same substance, in data set [2] (oral 1 mg/kg/day incl. 4 days pretreatment, formula-fed NEC mice, FIG. 7A), the “intestinal inflammation (ileum photomicrographs and gross images)” value is reported as “attenuates intestinal inflammation”. In data set [3], the gross morphology entry is reported as “much more robust”, the “expression of TNFα in the intestines (quantitative RT-PCR)” value is “brought the levels of TNFα in mNEC animals down to approach the level in BF controls” and the body weight entry is “higher body weight”. The “inducible nitric oxide synthase (iNOS) level (qRT-PCR)” value in data set [3] (mNEC mice versus BF controls, oral CpG, FIG. 3B) is “substantially reduced”. The “disruption of the small intestine mucosa (H&E histology)” value in data set [3] (oral treatment) is “ameliorated”. The “mucosal expression of iNOS (RT-PCR)” value in data set [4] (FIG. 6A) is “reduced almost to baseline levels”. For the same substance, the “mucosal expression of TNFα (RT-PCR)” value in data set [4] (FIG. 6B) is reported as “reduced almost to baseline levels”. Further, in data set [4] (FIG. 6C), the “weight at the time of euthanasia” value is on record as “approached controls”.

With “CpG-2: CpG-ODN 5′ TCGTCGTTTTGTCGTTCCTGACGTT 3′ (SEQ ID NO:9) (listed as DNA, chemistry not given here)”, the disease severity result in data set [3] (mNEC animals, oral treatment, FIG. 3A) is on record as “trended towards but did not reach statistical significance”. Moreover, in data set [3], the gross morphology entry is reported as “much more robust”, the “expression of TNFα in the intestines (quantitative RT-PCR)” value is “brought the levels of TNFα in mNEC animals down to approach the level in BF controls” and the body weight entry is “higher body weight”. Besides, in data set [3] (oral treatment), the “disruption of the small intestine mucosa (H&E histology)” value is on record as “ameliorated”. Moreover, in the data set with NFκB, the “nuclear localization of NFκB (punctate red fluorescence)” value is given as “largely absent”.
